Experimental data as given in patent publication US12410162B2, “Pyrazole acylhydrazone containing trifluoromethylthiadiazole units, preparation method and use thereof” (NANTONG UNIVERSITY, priority 2020, dated 2025).

Tested on: Mycosphaerella melonis
Experiment: Screening of bactericidal activity against Mycosphaerella melonis (toxic medium method)
Assay type: cell-based
Conditions: test concentration 200 μg/mL, 24-26° C. in the dark
Description: Screening of the Bactericidal Activity of the Samples Against Mycosphaerella melonis The toxic medium method was used to determine the antibacterial activity of the target against Mycosphaerella melonis. First the drug solution was added to the culture medium, then the bacterial cake was placed on the culture medium, the petri dish was placed in a 24-26° C. incubator in the dark, and then cultured at a constant temperature. Then according to the growth rate of pathogenic bacteria, when the diameter of the control was to about 8 cm, the antibacterial rate % was calculated. The test concentration was 200 μg/mL (the drug solution with other concentrations was obtained by diluting the drug solution with the concentration of 200 μg/mL).

Point of comparison: `Cc1nn(C)c(Oc2cccc(Cl)c2)c1C=NNC(=O)c1snnc1C(F)(F)F` [Ia], “Mycosphaerella melonis (inhibition ratio, %)” value 100%. Against it:
- Cc1nn(C)c(Oc2ccc(F)cc2F)c1C=NNC(=O)c1snnc1C(F)(F)F [Ic] — lower, 90%
- Cc1nn(C)c(Oc2cccc(Br)c2)c1C=NNC(=O)c1snnc1C(F)(F)F [Ib] — the same, 100%
- Cc1nn(C)c(Oc2ccc(Cl)cc2Cl)c1C=NNC(=O)c1snnc1C(F)(F)F [Id] — the same, 100%
